Measured values as given in paper PMC7300217, “Surfactin Like Broad Spectrum Antimicrobial Lipopeptide Co-produced With Sublancin From Bacillus subtilis Strain A52: Dual Reservoir of Bioactives” (Frontiers in Microbiology, 2020).
In brackets after ≈: the same amount, converted by molar mass.

Columns and labels:
[1] = tested on: C. kefyr 410004 (clinical isolate); test: MIC, microtiter plate dilution assay; assay type: cell-based; conditions: Kluyveromyces marxianus, 5 × 10^5 CFU/ml, 37°C, OD600 after 48 h, triplicate
Method: (§1) The antimicrobial activity was tested by well diffusion assay as mentioned earlier ([Singh et al., 2014]). Strain A52 was grown for 24 h in 500 ml of nutrient broth (NB, Hi-media, India) using 1000 ml flask and subsequently cells were removed by centrifugation (10,000 rpm for 15 min at 4°C). Supernatant was filtered through 0.22 μm filter (Millipore, United States) to obtain cell-free fermented broth (CFB) that was used for antimicrobial assay (50 μl) against various indicator strains and the activity was measured as diameter of inhibition zone. Test strains used were Staphylococcus aureus (MTCC 1430), Bacillus subtilis (MTCC 121), B. firmus (MTCC 488), B. licheniformis (MTCC 429), B. thuringiensis (MTCC 1953), Escherichia coli (MTCC 1610), Micrococcus luteus (MTCC 106), Steptococcus pyrogens (MTCC 1928), S. anginosus (MTCC 1929), S. oralis (MTCC 2696), S. mutans (MTCC 497), Candida albicans (MTCC 1637), C. albicans (MTCC 183), C. albicans (MTCC 227), C. tropicalis (MTCC 184), C. glabrata (MTCC 3019), C. haemulonii (MTCC 2766), and C. inconsplicue (MTCC 1074). The phytopathogenic fungi employed in this study were Alternaria brassicicola (MTCC 2102), Colletotrichum acutatum (MTCC 1037), and Fusarium moniliforme (MTCC 158). Clinical isolates of Candida were provided by National Culture Collection of Pathogenic Fungi (NCCPF), PGIMER, Chandigarh, India.
(§2) The minimum inhibitory concentration (MIC) of HPLC purified peptides was evaluated by using microtiter plate dilution assay. The peptide concentration was estimated using BCA protein assay (Thermo Fisher Scientific, United States) method as described by manufacturer. Actively growing test strains (5 × 10^5 CFU/ml) were inoculated in a 96-well plate with different concentrations of the peptides and plates were incubated for 24–48 h at 37°C (final volume in each well is 200 μl). OD was measured at 600 nm after 24 and 48 h for bacteria and yeast, respectively, using ELISA microplate reader (Thermo, United States). MIC against phytopathogenic fungi was determined using 96-well microtiter plate assay ([Kaur et al., 2016]). In 96-well microplates, 100 μl of fungal spore suspension (1 × 10^5 spores/ml) prepared in potato dextrose broth (PDB, Hi-media, India) was mixed with100 μl of fresh PDB containing different concentrations of lipopeptide. Control well contained 100 μl of fungal spore suspension and 100 μl of only medium. The microplates were incubated at 25°C and readings were recorded at 600 nm after 48 h. The lowest concentration showing no growth was considered as MIC. Each test was done in triplicate and optical density (OD600) of peptide treated wells were compared with uninoculated wells (blank medium control).

[2] = tested on: C. parasilosis 450030 (clinical isolate); test: MIC, microtiter plate dilution assay; assay type: cell-based; conditions: 5 × 10^5 CFU/ml, 37°C, OD600 after 48 h, triplicate
Method: as §1, §2

[3] = tested on: C. krusei 440009 (clinical isolate); test: MIC, microtiter plate dilution assay; assay type: cell-based; conditions: Pichia kudriavzevii, 5 × 10^5 CFU/ml, 37°C, OD600 after 48 h, triplicate
Method: as §1, §2

C. haemulonii MTCC 2766 = test: MIC, microtiter plate dilution assay; assay type: cell-based; conditions: Candidozyma haemuli, MTCC2766; 5 × 10^5 CFU/ml, 37°C, OD600 after 48 h, triplicate
Method: as §1, §2

[4] = tested on: C. rugos 470141 (clinical isolate); test: MIC, microtiter plate dilution assay; assay type: cell-based; conditions: 5 × 10^5 CFU/ml, 37°C, OD600 after 48 h, triplicate
Method: as §1, §2

[5] = tested on: C. glabrata SKSS ID (clinical isolate); test: MIC, microtiter plate dilution assay; assay type: cell-based; conditions: Nakaseomyces glabratus, 5 × 10^5 CFU/ml, 37°C, OD600 after 48 h, triplicate
Method: as §1, §2

C. glabrata MTCC 3019 = test: MIC, microtiter plate dilution assay; assay type: cell-based; conditions: Nakaseomyces glabratus, MTCC3019; 5 × 10^5 CFU/ml, 37°C, OD600 after 48 h, triplicate
Method: as §1, §2

[6] = tested on: C. haemulonii 470125 (clinical isolate); test: MIC, microtiter plate dilution assay; assay type: cell-based; conditions: Candidozyma haemuli, 5 × 10^5 CFU/ml, 37°C, OD600 after 48 h, triplicate
Method: as §1, §2

C. tropicalis MTCC 184 = test: MIC, microtiter plate dilution assay; assay type: cell-based; conditions: Candida tropicalis, MTCC184; 5 × 10^5 CFU/ml, 37°C, OD600 after 48 h, triplicate
Method: as §1, §2

[7] = tested on: C. aurius 470126 (clinical isolate); test: MIC, microtiter plate dilution assay; assay type: cell-based; conditions: 5 × 10^5 CFU/ml, 37°C, OD600 after 48 h, triplicate
Method: as §1, §2

[8] = tested on: C. inconsplicue MTCC 1074; test: MIC, microtiter plate dilution assay; assay type: cell-based; conditions: 5 × 10^5 CFU/ml, 37°C, OD600 after 48 h, triplicate
Method: as §1, §2

[9] = tested on: C. tropicalis 420024 (clinical isolate); test: MIC, microtiter plate dilution assay; assay type: cell-based; conditions: Candida tropicalis, 5 × 10^5 CFU/ml, 37°C, OD600 after 48 h, triplicate
Method: as §1, §2

C. albicans MTCC 1637 = test: MIC, microtiter plate dilution assay; assay type: cell-based, Candida albicans; conditions: Candida albicans, MTCC1637; 5 × 10^5 CFU/ml, 37°C, OD600 after 48 h, triplicate
Method: as §1, §2

[10] = tested on: C. albicans 400054 (clinical isolate); test: MIC, microtiter plate dilution assay; assay type: cell-based, Candida albicans; conditions: Candida albicans, 5 × 10^5 CFU/ml, 37°C, OD600 after 48 h, triplicate
Method: as §1, §2

C. albicans MTCC 227 = test: MIC, microtiter plate dilution assay; assay type: cell-based, Candida albicans; conditions: Candida albicans, MTCC227; 5 × 10^5 CFU/ml, 37°C, OD600 after 48 h, triplicate
Method: as §1, §2

C. albicans MTCC 183 = test: MIC, microtiter plate dilution assay; assay type: cell-based, Candida albicans; conditions: Candida albicans, MTCC183; 5 × 10^5 CFU/ml, 37°C, OD600 after 48 h, triplicate
Method: as §1, §2

[11] = tested on: A. brassicicola MTCC 2102; test: MIC against phytopathogenic fungi, 96-well microtiter plate assay; assay type: cell-based, Alternaria brassicicola; conditions: Alternaria brassicicola, MTCC2102; 1 × 10^5 spores/ml in PDB, 25°C, OD600 after 48 h, triplicate
Method: (§3) The antimicrobial activity was tested by well diffusion assay as mentioned earlier ([Singh et al., 2014]). Strain A52 was grown for 24 h in 500 ml of nutrient broth (NB, Hi-media, India) using 1000 ml flask and subsequently cells were removed by centrifugation (10,000 rpm for 15 min at 4°C). Supernatant was filtered through 0.22 μm filter (Millipore, United States) to obtain cell-free fermented broth (CFB) that was used for antimicrobial assay (50 μl) against various indicator strains and the activity was measured as diameter of inhibition zone. […]
(§4) The minimum inhibitory concentration (MIC) of HPLC purified peptides was evaluated by using microtiter plate dilution assay. […] OD was measured at 600 nm after 24 and 48 h for bacteria and yeast, respectively, using ELISA microplate reader (Thermo, United States). MIC against phytopathogenic fungi was determined using 96-well microtiter plate assay ([Kaur et al., 2016]). […] The microplates were incubated at 25°C and readings were recorded at 600 nm after 48 h. […]

F. moniliforme MTCC 158 = test: as above; assay type: cell-based, Fusarium moniliforme; conditions: Fusarium verticillioides, MTCC158; 1 × 10^5 spores/ml in PDB, 25°C, OD600 after 48 h, triplicate
Method: as §1
as §4, with “assay. The peptide concentration was estimated using BCA protein assay (Thermo Fisher Scientific, United States) method as described by manufacturer.” for “assay.”

S. mutans MTCC 497 = test: MIC, microtiter plate dilution assay; assay type: cell-based; conditions: Streptococcus mutans, MTCC497; 5 × 10^5 CFU/ml, 37°C, OD600 after 24 h, triplicate
Method: as §1, §2

S. pyogenes MTCC 1928 = test: MIC, microtiter plate dilution assay; assay type: cell-based; conditions: Streptococcus pyogenes, MTCC1928; 5 × 10^5 CFU/ml, 37°C, OD600 after 24 h, triplicate
Method: as §1, §2

S. anginosus MTCC1929 = test: MIC, microtiter plate dilution assay; assay type: cell-based; conditions: Streptococcus anginosus, MTCC1929; 5 × 10^5 CFU/ml, 37°C, OD600 after 24 h, triplicate
Method: as §1, §2

S. oralis MTCC 2696 = test: MIC, microtiter plate dilution assay; assay type: cell-based; conditions: Streptococcus oralis, MTCC2696; 5 × 10^5 CFU/ml, 37°C, OD600 after 24 h, triplicate
Method: as §1, §2

M. luteus MTCC 106 = test: MIC, microtiter plate dilution assay; assay type: cell-based, Micrococcus luteus; conditions: Micrococcus luteus, MTCC106; 5 × 10^5 CFU/ml, 37°C, OD600 after 24 h, triplicate
Method: as §3, §4

E. coli MTCC 1610 = test: MIC, microtiter plate dilution assay; assay type: cell-based, Escherichia coli; conditions: Escherichia coli, MTCC1610; 5 × 10^5 CFU/ml, 37°C, OD600 after 24 h, triplicate
Method: as §3, §4

B. coagulans MTCC 492 = test: MIC, microtiter plate dilution assay; assay type: cell-based; conditions: Heyndrickxia coagulans, MTCC492; 5 × 10^5 CFU/ml, 37°C, OD600 after 24 h, triplicate
Method: as §2

B. cereus MTCC 430 = test: MIC, microtiter plate dilution assay; assay type: cell-based; conditions: Bacillus cereus, MTCC430; 5 × 10^5 CFU/ml, 37°C, OD600 after 24 h, triplicate
Method: as §2

B. subtilis MTCC 121 = test: MIC, microtiter plate dilution assay; assay type: cell-based, Bacillus subtilis; conditions: Bacillus subtilis, MTCC121; 5 × 10^5 CFU/ml, 37°C, OD600 after 24 h, triplicate
Method: as §3, §4

S. aureus MTCC 1430 = test: MIC, microtiter plate dilution assay; assay type: cell-based, Staphylococcus aureus; conditions: Staphylococcus aureus, MTCC1430; 5 × 10^5 CFU/ml, 37°C, OD600 after 24 h, triplicate
Method: as §3, §4

[12] = tested on: skin of BALB/c female mice; test: Skin irritation study (Draize test); assay type: in vivo; conditions: topical, about 1 cm^2 hairless dorsal skin, score 0 none, 1 slight, 2 moderate, 3 severe, mean
Method: Skin irritation potential of lipopetide based emulgel formulation was evaluated by carrying out skin irritancy test using 8 weeks old BALB/c female mice ([Draize et al., 1944]). Mice dorsal surface hair was removed without damaging the skin surface about 24 h prior to the experiment. Mice were divided into three groups (n = 3): […] Group II: plain gel (negative control); and Group III: […] emulgel. The formulation was topically applied to the hairless skin area (approximately 1 cm^2) and observations were recorded at 24, 48, and 72 h.

## C[C@@H]1[C@H](O)[C@@H](C)/C=C/C=C/C=C/C=C/C=C/C=C/C=C/[C@H](O[C@@H]2O[C@H](C)[C@@H](O)[C@H](N)[C@@H]2O)C[C@@H]2O[C@](O)(C[C@@H](O)C[C@@H](O)[C@H](O)CC[C@@H](O)C[C@@H](O)CC(=O)O[C@H]1C)C[C@H](O)[C@H]2C(=O)O [Amphotericin B, reference compound]
[1]
  MIC: 50 µg/mL (≈ 54.1 µM)
[2]
  MIC: 50 µg/mL (≈ 54.1 µM)
[3]
  MIC: 5 µg/mL (≈ 5.41 µM)
C. haemulonii MTCC 2766
  MIC: 100 µg/mL (≈ 108 µM)
[4]
  MIC: 5 µg/mL (≈ 5.41 µM)
[5]
  MIC: 100 µg/mL (≈ 108 µM)
C. glabrata MTCC 3019
  MIC: 25 µg/mL (≈ 27.1 µM)
[6]
  MIC: 50 µg/mL (≈ 54.1 µM)
C. tropicalis MTCC 184
  MIC: 35 µg/mL (≈ 37.9 µM)
[7]
  MIC: 5 µg/mL (≈ 5.41 µM)
[8]
  MIC: 10 µg/mL (≈ 10.8 µM)
[9]
  MIC: 50 µg/mL (≈ 54.1 µM)
C. albicans MTCC 1637
  MIC: 5 µg/mL (≈ 5.41 µM)
[10]
  MIC: 5 µg/mL (≈ 5.41 µM)
C. albicans MTCC 227
  MIC: 5 µg/mL (≈ 5.41 µM)
C. albicans MTCC 183
  MIC: 5 µg/mL (≈ 5.41 µM)
[11]
  MIC: 50 µg/mL (≈ 54.1 µM)
F. moniliforme MTCC 158
  MIC: 50 µg/mL (≈ 54.1 µM)

## CC1(C)S[C@@H]2[C@H](NC(=O)[C@H](N)c3ccccc3)C(=O)N2[C@H]1C(=O)O [Ampicillin, reference compound]
S. mutans MTCC 497
  MIC: 0.4 µg/mL (≈ 1.14 µM)
S. pyogenes MTCC 1928
  MIC: 0.03 µg/mL (≈ 0.0859 µM)
S. anginosus MTCC1929
  MIC: 0.25 µg/mL (≈ 0.715 µM)
S. oralis MTCC 2696
  MIC: 0.4 µg/mL (≈ 1.14 µM)
M. luteus MTCC 106
  MIC: 0.2 µg/mL (≈ 0.572 µM)
E. coli MTCC 1610
  MIC: 1 µg/mL (≈ 2.86 µM)
B. coagulans MTCC 492
  MIC: 0.5 µg/mL (≈ 1.43 µM)
B. cereus MTCC 430
  MIC: 0.5 µg/mL (≈ 1.43 µM)
B. subtilis MTCC 121
  MIC: 0.5 µg/mL (≈ 1.43 µM)
S. aureus MTCC 1430
  MIC: 0.25 µg/mL (≈ 0.715 µM)

## OC(Cn1cncn1)(Cn1cncn1)c1ccc(F)cc1F [Fluconazole]
[2]
  MIC: 10 µg/mL (≈ 32.7 µM)
[3]
  MIC: 1 µg/mL (≈ 3.27 µM)
[4]
  MIC: 5 µg/mL (≈ 16.3 µM)
[8]
  MIC: 50 µg/mL (≈ 163 µM)
C. albicans MTCC 183
  MIC: 20 µg/mL (≈ 65.3 µM)
F. moniliforme MTCC 158
  MIC: 10 µg/mL (≈ 32.7 µM)

## CCCCCCCCCCCCOS(=O)(=O)[O-].[Na+] [Positive Control, sodium lauryl sulfate]
[12]
  Erythema score (n=3), 0 h: 0
  Erythema score (n=3), 24h: 3
  Erythema score (n=3), 48h: 3
  Erythema score (n=3), 72h: 3
